Laboratory results reported in patent US10028992B2, “Methods of treating muscular dystrophy” (BOARD OF REGENTS OF THE NEVADA SYSTEM OF HIGHER EDUCATION …, priority 2012, dated 2018).

Tested on: α7 integrin promoter
Assay: muscle cell-based assay: α7βgal+/− myoblasts/myotubes, LacZ reporter, β-galactosidase cleavage of FDG
Parameters: species or system mouse; Results in α7+/− β-galactosidase assay: scale not given here
Settings: Myoblasts
Outline: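 Primary α7βgal+/− mouse myoblasts (LacZ knocked into α7 integrin exon 1, promoter retained), differentiated; promoter activity read as β-galactosidase conversion of non-fluorescent FDG to fluorescein. Hits followed by dose-response, western analysis and myostatin counterscreen.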

SMILES: Cn1c(-c2ccccc2)cc2ccccc21 [drawing 627]
- Results in α7+/− β-galactosidase assay (0.5 uM): 0.02349
- Results in α7+/− β-galactosidase assay (1 uM): −0.0996
- Results in α7+/− β-galactosidase assay (5 uM): −0.05693
- Results in α7+/− β-galactosidase assay (10 uM): −0.02616
- Results in α7+/− β-galactosidase assay (20 uM): −0.2661
- Results in α7+/− β-galactosidase assay (40 uM): −0.4026

SMILES: COc1ccc(C(=O)/C=C2\C(=O)Nc3ccccc32)cc1OC [drawing 628]
- Results in α7+/− β-galactosidase assay (0.5 uM): 0.07545
- Results in α7+/− β-galactosidase assay (1 uM): −0.02919
- Results in α7+/− β-galactosidase assay (5 uM): 0.1241
- Results in α7+/− β-galactosidase assay (10 uM): 0.1545
- Results in α7+/− β-galactosidase assay (20 uM): −0.335
- Results in α7+/− β-galactosidase assay (40 uM): −0.4748

SMILES: CC(C(=O)Nc1ccc(C#N)cc1)N(C)CC(=O)Nc1cccc(F)c1 (stereo not drawn) [drawing 629]
- Results in α7+/− β-galactosidase assay (0.5 uM): −0.05058
- Results in α7+/− β-galactosidase assay (1 uM): −0.1543
- Results in α7+/− β-galactosidase assay (5 uM): −0.4207
- Results in α7+/− β-galactosidase assay (10 uM): −0.5078
- Results in α7+/− β-galactosidase assay (20 uM): −0.8278
- Results in α7+/− β-galactosidase assay (40 uM): −0.7653

SMILES: CC(C(=O)Nc1ccc(C#N)cc1)N(C)CC(=O)Nc1cccc(F)c1 (stereo not drawn) [drawing 630]
- Results in α7+/− β-galactosidase assay (0.5 uM): 0.01302
- Results in α7+/− β-galactosidase assay (1 uM): −0.06275
- Results in α7+/− β-galactosidase assay (5 uM): 0.01684
- Results in α7+/− β-galactosidase assay (10 uM): 0.1242
- Results in α7+/− β-galactosidase assay (20 uM): −0.01497
- Results in α7+/− β-galactosidase assay (40 uM): −0.1721

SMILES: CC1Cc2ccccc2N1C(=O)CSc1nnc(N)s1 (stereo not drawn) [drawing 631]
- Results in α7+/− β-galactosidase assay (0.5 uM): 0.1058
- Results in α7+/− β-galactosidase assay (1 uM): −0.02327
- Results in α7+/− β-galactosidase assay (5 uM): 0.003792
- Results in α7+/− β-galactosidase assay (10 uM): 0.1155
- Results in α7+/− β-galactosidase assay (20 uM): −0.02505
- Results in α7+/− β-galactosidase assay (40 uM): −0.07326

SMILES: CC(C)(C)NC(=O)NC(=O)CN1CCN(Cc2ccccc2)CC1 [drawing 632]
- Results in α7+/− β-galactosidase assay (0.5 uM): 0.1233
- Results in α7+/− β-galactosidase assay (1 uM): −0.06967
- Results in α7+/− β-galactosidase assay (5 uM): −0.04648
- Results in α7+/− β-galactosidase assay (10 uM): 0.1725
- Results in α7+/− β-galactosidase assay (20 uM): −0.02695
- Results in α7+/− β-galactosidase assay (40 uM): −0.05859

SMILES: COc1cc(C=O)ccc1OCC(=O)Nc1ccc2c(c1)OCO2 [drawing 633]
- Results in α7+/− β-galactosidase assay (0.5 uM): 0.04105
- Results in α7+/− β-galactosidase assay (1 uM): −0.1736
- Results in α7+/− β-galactosidase assay (5 uM): 0.4398
- Results in α7+/− β-galactosidase assay (10 uM): 0.09536
- Results in α7+/− β-galactosidase assay (20 uM): −0.06607
- Results in α7+/− β-galactosidase assay (40 uM): −0.1156

SMILES: Cc1ccccc1NC(=O)c1ccc2c(O)c(Sc3ccccc3)c(=O)[nH]c2c1 [drawing 634]
- Results in α7+/− β-galactosidase assay (0.5 uM): −0.01711
- Results in α7+/− β-galactosidase assay (1 uM): −0.1427
- Results in α7+/− β-galactosidase assay (5 uM): 0.008423
- Results in α7+/− β-galactosidase assay (10 uM): −0.03481
- Results in α7+/− β-galactosidase assay (20 uM): −0.0939
- Results in α7+/− β-galactosidase assay (40 uM): −0.1611

SMILES: Oc1nc(SCc2ccc(Cl)cc2)nc2ccsc12 [drawing 635]
- Results in α7+/− β-galactosidase assay (0.5 uM): 0.07667
- Results in α7+/− β-galactosidase assay (1 uM): 0.02077
- Results in α7+/− β-galactosidase assay (5 uM): −0.02435
- Results in α7+/− β-galactosidase assay (10 uM): −0.03652
- Results in α7+/− β-galactosidase assay (20 uM): −0.1552
- Results in α7+/− β-galactosidase assay (40 uM): −0.139

SMILES: CCn1c(=O)c2cc(C(=O)N(C)c3cc(C)ccc3OC)sc2c2ccccc21 [drawing 636]
- Results in α7+/− β-galactosidase assay (0.5 uM): 0.06384
- Results in α7+/− β-galactosidase assay (1 uM): −0.07654
- Results in α7+/− β-galactosidase assay (5 uM): −0.2273
- Results in α7+/− β-galactosidase assay (10 uM): −0.2656
- Results in α7+/− β-galactosidase assay (20 uM): −0.396
- Results in α7+/− β-galactosidase assay (40 uM): −0.3923

SMILES: CCOC(=O)C1=C(NC(=O)c2ccc(OC)c(S(=O)(=O)N3CCCCC3C)c2)Nc2ccccc2N=C1CC (stereo not drawn) [drawing 637]
- Results in α7+/− β-galactosidase assay (0.5 uM): 0.1194
- Results in α7+/− β-galactosidase assay (1 uM): 0.007377
- Results in α7+/− β-galactosidase assay (5 uM): −0.06112
- Results in α7+/− β-galactosidase assay (10 uM): −0.01618
- Results in α7+/− β-galactosidase assay (20 uM): −0.4913
- Results in α7+/− β-galactosidase assay (40 uM): −0.6556
